Experimental data published in ChEMBL document CHEMBL1130625, “Synthesis and antibacterial activity of novel 7-(3-substituted-3 or 4-trifluoromethyl-1-pyrrolidinyl)-8-methoxyfluoroquinolones” (1998).

What was measured:
Citrobacter freundii [1] = experiment: Compound was tested for antibacterial activity against gram negative Citrobacter freundii KP-29; type: functional; settings: Citrobacter freundii; read-out: MIC
Streptococcus pyogenes = experiment: Compound was tested for antibacterial activity against gram positive Streptococcus pyogenes cook; settings: Streptococcus pyogenes; read-out: MIC
Enterobacter cloacae = experiment: Compound was tested for antibacterial activity against gram negative Enterobacter cloacae Nek39; type: functional; settings: Enterobacter cloacae; read-out: MIC
Pseudomonas aeruginosa [2] = experiment: Compound was tested for antibacterial activity against gram negative Pseudomonas aeruginosa K-13; type: functional; settings: Pseudomonas aeruginosa; read-out: MIC
Enterococcus faecalis = experiment: Compound was tested for antibacterial activity against gram positive Enterococcus faecalis 1373; type: functional; settings: Enterococcus faecalis; read-out: MIC
Staphylococcus aureus [3] = experiment: Compound was tested for antibacterial activity against gram positive Staphylococcus aureus FDA 209P JC-1; type: functional; settings: Staphylococcus aureus; read-out: MIC
Serratia marcescens = experiment: Compound was tested for antibacterial activity against gram negative Serratia marcescens No.16-2; type: functional; settings: Serratia marcescens; read-out: MIC
Proteus vulgaris [4] = experiment: Compound was tested for antibacterial activity against gram negative Proteus vulgaris No.33; type: functional; settings: Proteus vulgaris; read-out: MIC
Proteus mirabilis = experiment: Compound was tested for antibacterial activity against gram negative Proteus mirabilis JY-10; type: functional; settings: Proteus mirabilis; read-out: MIC
Escherichia coli [5] = experiment: Compound was tested for antibacterial activity against gram negative Escherichia coli CSH2/RE45; type: functional; settings: Escherichia coli; read-out: MIC
Citrobacter freundii [6] = experiment: Compound was tested for antibacterial activity against gram negative Citrobacter freundii No.7; type: functional; settings: Citrobacter freundii; read-out: MIC
Proteus vulgaris [7] = experiment: Compound was tested for antibacterial activity against gram negative Proteus vulgaris KS-134; type: functional; settings: Proteus vulgaris; read-out: MIC
Staphylococcus aureus [8] = experiment: Compound was tested for antibacterial activity against gram positive Staphylococcus aureus KP-90-3; type: functional; settings: Staphylococcus aureus; read-out: MIC
Pseudomonas aeruginosa [9] = experiment: Compound was tested for antibacterial activity against gram negative Pseudomonas aeruginosa AK109; type: functional; settings: Pseudomonas aeruginosa; read-out: MIC
[10] = test system: Acinetobacter calcoaceticus; experiment: Compound was tested for antibacterial activity against gram negative Acinetobacter calcoaceticus No.4; type: functional; settings: Acinetobacter calcoaceticus; read-out: MIC
Klebsiella oxytoca = experiment: Compound was tested for antibacterial activity against gram negative Klebsiella oxytoca GN 10650; type: functional; settings: Klebsiella oxytoca; read-out: MIC
Escherichia coli [11] = experiment: Compound was tested for antibacterial activity against gram negative Escherichia coli NIHJ JC-2; type: functional; settings: Escherichia coli; read-out: MIC
Pseudomonas aeruginosa [12] = experiment: Compound was tested for antibacterial activity against gram negative Pseudomonas aeruginosa KP-254; type: functional; settings: Pseudomonas aeruginosa; read-out: MIC
Klebsiella pneumoniae [13] = experiment: Compound was tested for antibacterial activity against gram negative Klebsiella pneumoniae KC-1; type: functional; settings: Klebsiella pneumoniae; read-out: MIC
Klebsiella pneumoniae [14] = experiment: Compound was tested for antibacterial activity against gram negative Klebsiella pneumoniae No.42; type: functional; settings: Klebsiella pneumoniae; read-out: MIC
Pseudomonas aeruginosa [15] = experiment: Compound was tested for antibacterial activity against gram negative Pseudomonas aeruginosa PAO1; type: functional; settings: Pseudomonas aeruginosa; read-out: MIC
Escherichia coli [16] = experiment: Compound was tested for antibacterial activity against gram negative Escherichia coli ML4707; type: functional; settings: Escherichia coli; read-out: MIC
Staphylococcus aureus [17] = experiment: Compound was tested for antibacterial activity against gram positive Staphylococcus aureus smith; type: functional
Staphylococcus aureus [18] = experiment: Compound was tested for antibacterial activity against gram positive Staphylococcus aureus JS-1; type: functional; settings: Staphylococcus aureus; read-out: MIC
Escherichia coli [19] = experiment: Compound was tested for antibacterial activity against gram negative Escherichia coli CSH2/RK1; type: functional; settings: Escherichia coli; read-out: MIC
Burkholderia cepacia = experiment: Compound was tested for antibacterial activity against gram negative Burkholderia cepacia 23; type: functional; settings: Burkholderia cepacia; read-out: MIC

| MIC (Citrobacter freundii [1]) [mg/L] | MIC (Streptococcus pyogenes) [mg/L] | MIC (Enterobacter cloacae) [mg/L] | MIC (Pseudomonas aeruginosa [2]) [mg/L] | MIC (Enterococcus faecalis) [mg/L] | MIC (Staphylococcus aureus [3]) [mg/L] | MIC (Serratia marcescens) [mg/L] | MIC (Proteus vulgaris [4]) [mg/L] | MIC (Proteus mirabilis) [mg/L] | MIC (Escherichia coli [5]) [mg/L] | MIC (Citrobacter freundii [6]) [mg/L] | MIC (Proteus vulgaris [7]) [mg/L] | MIC (Staphylococcus aureus [8]) [mg/L] | MIC (Pseudomonas aeruginosa [9]) [mg/L] | MIC [10] [mg/L] | MIC (Klebsiella oxytoca) [mg/L] | MIC (Escherichia coli [11]) [mg/L] | MIC (Pseudomonas aeruginosa [12]) [mg/L] | MIC (Klebsiella pneumoniae [13]) [mg/L] | MIC (Klebsiella pneumoniae [14]) [mg/L] | Structure (SMILES) | other results |
| --- | --- | --- | --- | --- | --- | --- | --- | --- | --- | --- | --- | --- | --- | --- | --- | --- | --- | --- | --- | --- | --- |
| 100 | 0.39 | 3.13 | 50 | 0.39 | 0.05 | 3.13 | 0.39 | 0.2 | 3.13 | 3.13 | 100 | 1.56 | 6.25 | 0.2 | 0.39 | 0.2 | > 100 | 0.2 | 0.39 | COc1c(N2C[C@@H](C(F)(F)F)[C@@H](N)C2)c(F)cc2c(=O)c(C(=O)O)cn(C3CC3)c12.Cl | MIC (Pseudomonas aeruginosa [15]): 3.13 mg/L; MIC (Escherichia coli [16]): 0.1 mg/L; MIC (Staphylococcus aureus [17]): 0.025 mg/L; MIC (Staphylococcus aureus [18]): 0.05 mg/L; MIC (Escherichia coli [19]): 3.13 mg/L; MIC (Burkholderia cepacia): 1.56 mg/L |
| 50 | 0.025 | 1.56 | 50 | 0.05 | 0.05 | 0.78 | 0.39 | 0.2 | 1.56 | 1.56 | 50 | 0.78 | 6.25 | 0.2 | 0.2 | 0.2 | > 100 | 0.1 | 0.39 | COc1c(N2C[C@H](CN)[C@@H](C(F)(F)F)C2)c(F)cc2c(=O)c(C(=O)O)cn(C3CC3)c12.Cl | MIC (Pseudomonas aeruginosa [15]): 6.25 mg/L; MIC (Escherichia coli [16]): 0.05 mg/L; MIC (Staphylococcus aureus [17]): ≤ 0.006 mg/L; MIC (Staphylococcus aureus [18]): 0.013 mg/L; MIC (Escherichia coli [19]): 3.13 mg/L; MIC (Burkholderia cepacia): 1.56 mg/L |
| 12.5 | ≤ 0.006 | 0.39 | 6.25 | 0.05 | 0.013 | 0.39 | 0.1 | 0.05 | 0.39 | 0.39 | 50 | 0.2 | 0.78 | 0.2 | 0.1 | 0.05 | 100 | 0.1 | 0.1 | COc1c(N2C[C@@H](CN)[C@H](C)C2)c(F)cc2c(=O)c(C(=O)O)cn(C3CC3)c12.Cl | MIC (Pseudomonas aeruginosa [15]): 0.78 mg/L; MIC (Escherichia coli [16]): 0.025 mg/L; MIC (Staphylococcus aureus [17]): ≤ 0.006 mg/L; MIC (Staphylococcus aureus [18]): ≤ 0.006 mg/L; MIC (Escherichia coli [19]): 0.39 mg/L; MIC (Burkholderia cepacia): 1.56 mg/L |
